Laboratory results reported in patent EP3833345B1, “SMALL MOLECULE-INHIBITORS OF 6-PHOSPHOFRUCTO-1-KINASE FOR REDUCING LACTATE GENERATION BY CANCER CELLS” (Kemijski Institut, priority 2018, dated 2020).

Assays:
Assay type in all cases: cell-based
COLO 829 cells [1] = test: lactate excretion by COLO 829 cells
Protocol: (§1) Preliminary in vivo tests were run by measuring lactate production by three different tumorigenic cell lines. Again, 100 µM concentrations of tested compounds have been added to the medium. For the experiment, the following tumorigenic cells lines originating from different tumours were tested: Caco-2 cells (Figure 10a), originating from colorectal adenoma carcinoma; COLO 829 cells (Figure 10b), isolated from melanoma; and MDA-MB-231 cells (Figure 10c) derived from metastatic phase of mammary/breast cancer. All adherent cell lines were grown in the RPMI 1640 GlutaMAX substrate (Thermo Fisher) supplemented with 10% FBS.
On the basis of preliminary results, inhibitors No. 23, 29, 30 and 31 were tested on COLO 829 cells. […] No significant discrepancies of total cell numbers in respect to the control were observed due to the different concentrations of inhibitors in the medium (Figure 13e). The average percent of dead COLO 829 cells in the control and in the presence of different concentrations of inhibitors were as follows: inh. 23 (9,23±0,6%), inh. 29 (9,31±0,73%), inh. 30 (8,27±0,49%), inh. 31 (8,26±0,38%). Additionally, cytotoxicity of inh. 3 (5,01±1,08%) and 9 (3,65±0,78%) for COLO 829 cells were also determined. No dose dependent decrease of survival was observed by any inhibitor.
(§2) A decrease in inhibitory effectiveness of some compounds was observed after certain period of time (Example 11). […] Therefore, the influence of selected inhibitors was assessed by sequential re-insertion of low concentrations of inhibitors at indicated time points. The inhibitors were first added to the medium 8 hours after the inoculation followed by periodically additions at 24-hour intervals (marked by arrows).
No significant cytostatic (Figure 16f) of cytotoxic effect of inhibitors could be detected after 92 hours of incubation despite of sequential addition of various concentrations of inhibitors. The following average percentages of dead cells were perceived in the medium without and media with inh. 3 (1,95±0,15%) inh. 9 (1,70±0,14%), inh. 23 (2,40±0,09%), inh. 29 (1,66±0,25%) and inh. 30 (1,38±0,18%). No detrimental effects of increased inhibitors concentrations on cell deaths have been observed.

Caco-2 cells [2] = test: lactate excretion by Caco-2 cells; settings: single addition, different concentrations (20-80 µM)
Protocol: as §1, with “Again, 100 µM concentrations of tested compounds have been added to the medium.” left out, “cancer.” for “cancer. All adherent cell lines were grown in the RPMI 1640 GlutaMAX substrate (Thermo Fisher) supplemented with 10% FBS.”
(§3) Lactate generation, growth yield and survival under normal and inhibitory conditions of three different tumorigenic cells lines were determined in more detailed measurements. […] Cytotoxicity was measured by the Lactate dehydrogenase (LDH) kit (Roche).
Therefore, the influence of selected inhibitors was assessed by sequential re-insertion of low concentrations of inhibitors at indicated time points. The inhibitors were first added to the medium 8 hours after the inoculation followed by periodically additions at 24-hour intervals (marked by arrows).

Caco-2 cells [3] = test: cytotoxicity in Caco-2 cells (lactate dehydrogenase (LDH) kit)
Protocol: as §3

MDA-MB-231 cells [4] = test: cytotoxicity in MDA-MB-231 cells (LDH kit)
Protocol: as §3
Inhibitors No. 23, 29, 30 and 31 were tested for preventing lactate generation by the MDA-MB-231 cells.

MDA-MB-231 cells [5] = test: lactate excretion by MDA-MB-231 cells; settings: single addition, different concentrations
Protocol: as §1
(§4) Inhibitors No. 23, 29, 30 and 31 were tested for preventing lactate generation by the MDA-MB-231 cells. […] No significant discrepancies of total cell numbers were observed (Figure 14e) due to the different concentrations of inhibitors in the medium. […] The average percent of dead MDA-MB-231 cells in the control and in the presence of different concentrations of inhibitors were as follows: inh. 23 (2,98±0,2%), inh. 29 (3,37±0,39%), inh. 30 (3,4±0,21%), inh. 31 (6,87±0,44%). Additionally, cytotoxicity of inh. 3 (7,2±0,47%) and 9 (6,59±0,29%) for MDA-MB-231 cells were also determined. No dose dependent decrease of survival was observed by any inhibitor.
as §2
(§5) In MDA-MB-231 calls similar results to those found in Caco-2 cells were observed. […] No significant cytostatic (Figure 17f) or cytotoxic effect of inhibitors could be detected after 92 hours of incubation despite of sequential addition of various concentrations of inhibitors. The following average percentages of dead cells were perceived in the medium without and with inh. 3 (2,05±0,18%), inh. 9 (1,85±0,05%), inh. 23 (2,20±0,15%), inh. 29 (1,54±0,16%) and inh. 30 (2,00±0,18%). No detrimental effects of increased inhibitors concentrations on cell deaths have been observed.

COLO 829 cells [6] = test: cytotoxicity in COLO 829 cells (LDH kit)
Protocol: as §3

Caco-2 cells [7] = test: total cell numbers of Caco-2 cells at end of incubation; settings: single addition, end of incubation (92 hours)
Protocol: as §3

MDA-MB-231 cells [8] = test: total cell numbers of MDA-MB-231 cells at end of incubation; settings: single addition, different concentrations
Protocol: as §4, §5

[9] = sequential addition at 24-hour intervals, 92 hours, average over medium without and with inhibitor
[10] = single addition, average over control and different concentrations of inhibitor

For `O=C(CCS(=O)(=O)c1ccc(Cl)cc1)Nc1nnc(-c2ccno2)o1` [Inhibitor No. 29, 3-(4-chlorophenyl)sulfonyl-N-(5-isoxazol-5-yl-1,3,4-oxadiazol-2-yl)propanamide], which “lactate formation in COLO 829 cells, sequential re-insertion” value (COLO 829 cells [1]; inhibitor added 8 hours after inoculation, then at 24-hour intervals, low concentrations (from 10 µM)) is on record?
Its value is “slightly weaker inhibitions”.

What about the “lactate excretion by COLO 829 cells” value (COLO 829 cells [1]; single addition, different concentrations) of the same compound?
The value was “strongest reductions of lactate excretion”.

What about the “lactate generation by Caco-2 cells” value (Caco-2 cells [2]) of the same compound?
The value was “effectively reduced the lactate accumulation in the medium in a dose dependent manner”.

What about the “average percentages of dead cells, Caco-2, sequential re-insertion” value (Caco-2 cells [3]; [9]) of the same compound?
Its value is 4,57±0,04%.

And the “average percent of dead cells, Caco-2” value (Caco-2 cells [3]; [10])?
Its value is 4,95±0,27%.

What about the “average percentages of dead cells, MDA-MB-231, sequential re-insertion” value (MDA-MB-231 cells [4]; [9]) of the same compound?
Its value is 1,54±0,16%.

And the “average percent of dead MDA-MB-231 cells” value (MDA-MB-231 cells [4]; [10])?
Its value is 3,37±0,39%.

What about the “lactate excretion by MDA-MB-231 cells” value (MDA-MB-231 cells [5]) of the same compound?
The value was “dose dependent inhibition of lactate excretion”.

And the “average percentages of dead cells, COLO 829, sequential re-insertion” value (COLO 829 cells [6]; [9])?
Its value is 1,66±0,25%.

What about the “average percent of dead COLO 829 cells” value (COLO 829 cells [6]; [10]) of the same compound?
The value was 9,31±0,73%.

And the “total cell numbers, Caco-2” value (Caco-2 cells [7])?
Its value is “minor dose dependent reductions in total cell numbers”.

And the “total cell numbers, MDA-MB-231” value (MDA-MB-231 cells [8])?
Its value is “dose dependent decrease of cell numbers”.
